Data from US20260015350A1, “AZAQUINAZOLINE PAN-KRAS INHIBITORS” (Mirati Therapeutics, Inc., priority 2022, published 2026).

How the values were obtained:
KRas^G12R = biological target: T1, KRas^G12R (Homo sapiens, UniProt P01116, G12R); assay: KRas binding assay (TR-FRET tracer displacement), KRas G12R
T1 construct: Biotinylated KRas (corresponding to amino acids 1-169, produced at Accelegan Inc.); biotin (biotinylated); purchased Accelegan Inc

KRas^WT = biological target: T2, KRas^WT (Homo sapiens, UniProt P01116); assay: KRas binding assay (TR-FRET tracer displacement), KRas WT; conditions: TR-FRET tracer displacement, KRas WT
T2 construct: Biotinylated KRas (corresponding to amino acids 1-169, produced at Accelegan Inc.); biotin (biotinylated); purchased Accelegan Inc

[1] = test system: KRas-mediated phosphorylation of ERK in HCT116 cells; assay: Inhibition of KRas-mediated phosphorylation of ERK (Cisbio HTRF pERK), HCT116 cells; format: cell-based; conditions: Homo sapiens, HCT-116, 3 h, single point, 100 nM compound, 3 hrs
Method in brief: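 Min control wells contained 0.2 uM Trametinib, while test compounds ran as 10 doses (3-fold, top 10 uM; 0.8% DMSO final) on cells for 3 hrs. After 40 mins lysis at 4° C, lysates were probed with HTRF antibodies for 2 hrs at room temperature.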

[2] = test system: KRas-mediated phosphorylation of ERK in H727 cells; assay: Inhibition of KRas-mediated phosphorylation of ERK (Cisbio HTRF pERK), H727 cells; format: cell-based; conditions: Homo sapiens; for inhibition at 0.1 µM: NCI-H727, 3 h, single point, 100 nM compound, 3 hrs, H727 cells; for IC50: NCI-H727, H727 cells, HTRF pERK
Method in brief: (§1)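 Using 6,000 cells per well, compounds are applied for 3 hrs and cells then lysed at 4° C with shaking for 40 mins. Phospho-ERK is measured by HTRF after 2 hrs of lysate incubation with the d2/Cryptate antibody mixture.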

KRas^G12S = biological target: T3, KRas^G12S (Homo sapiens, UniProt P01116, G12S); assay: KRas binding assay (TR-FRET tracer displacement), KRas G12S; conditions: TR-FRET tracer displacement, KRas G12S
T3 construct: Biotinylated KRas (corresponding to amino acids 1-169, produced at Accelegan Inc.); biotin (biotinylated); purchased Accelegan Inc

KRas^G12V = biological target: T4, KRas^G12V (Homo sapiens, UniProt P01116, G12V); assay: KRas binding assay (TR-FRET tracer displacement), KRas G12V
T4 construct: Biotinylated KRas (corresponding to amino acids 1-169, produced at Accelegan Inc.); biotin (biotinylated); purchased Accelegan Inc

KRas^G12D = biological target: T5, KRas^G12D (Homo sapiens, UniProt P01116, G12D); assay: KRas binding assay (TR-FRET tracer displacement), KRas G12D
T5 construct: Biotinylated KRas (corresponding to amino acids 1-169, produced at Accelegan Inc.); biotin (biotinylated); purchased Accelegan Inc

KRas^G12C = biological target: T6, KRas^G12C (Homo sapiens, UniProt P01116, G12C); assay: KRas binding assay (TR-FRET tracer displacement), KRas G12C; conditions: TR-FRET tracer displacement, KRas G12C
T6 construct: Biotinylated KRas (corresponding to amino acids 1-169, produced at Accelegan Inc.); biotin (biotinylated); purchased Accelegan Inc

[3] = test system: KRas-mediated phosphorylation of ERK in H460 cells; assay: Inhibition of KRas-mediated phosphorylation of ERK (Cisbio HTRF pERK), H460 cells; format: cell-based; conditions: Homo sapiens, NCI-H460, 3 h, single point, 100 nM compound, 3 hrs
Method in brief: as §1

KRas^G12A = biological target: T7, KRas^G12A (Homo sapiens, UniProt P01116, G12A); assay: KRas binding assay (TR-FRET tracer displacement), KRas G12A; conditions: TR-FRET tracer displacement, KRas G12A
T7 construct: Biotinylated KRas (corresponding to amino acids 1-169, produced at Accelegan Inc.); biotin (biotinylated); purchased Accelegan Inc

[4] = test system: KRas-mediated phosphorylation of ERK in AsPC-1 cells; assay: Inhibition of KRas-mediated phosphorylation of ERK (Cisbio HTRF pERK), AsPC-1 cells; format: cell-based; conditions: Homo sapiens; for inhibition at 0.1 µM: ASPC1, 3 h, single point, 100 nM compound, 3 hrs, AsPC-1 cells; for IC50: ASPC1, AsPC-1 cells, HTRF pERK
Method in brief: as §1

KRas^G13D = biological target: T8, KRas^G13D (Homo sapiens, UniProt P01116, G13D); assay: KRas binding assay (TR-FRET tracer displacement), KRas G13D; conditions: TR-FRET tracer displacement, KRas G13D
T8 construct: Biotinylated KRas (corresponding to amino acids 1-169, produced at Accelegan Inc.); biotin (biotinylated); purchased Accelegan Inc

KRas^Q61H = biological target: T9, KRas^Q61H (Homo sapiens, UniProt P01116, Q61H); assay: KRas binding assay (TR-FRET tracer displacement), KRas Q61H; conditions: TR-FRET tracer displacement, KRas Q61H
T9 construct: Biotinylated KRas (corresponding to amino acids 1-169, produced at Accelegan Inc.); biotin (biotinylated); purchased Accelegan Inc
T9 sequence (P01116 1-169 isoform P01116-2 Q61H): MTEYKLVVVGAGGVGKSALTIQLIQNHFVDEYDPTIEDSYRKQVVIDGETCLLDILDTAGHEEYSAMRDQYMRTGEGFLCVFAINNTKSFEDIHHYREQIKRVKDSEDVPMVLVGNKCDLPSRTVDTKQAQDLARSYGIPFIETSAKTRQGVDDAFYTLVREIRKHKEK

T8 sequence (P01116 1-169 isoform P01116-2 G13D): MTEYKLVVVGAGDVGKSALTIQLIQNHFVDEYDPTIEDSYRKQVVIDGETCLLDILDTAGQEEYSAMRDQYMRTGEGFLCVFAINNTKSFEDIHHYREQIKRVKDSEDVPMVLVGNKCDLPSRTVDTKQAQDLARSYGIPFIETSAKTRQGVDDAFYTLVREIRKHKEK
T4 sequence (P01116 1-169 isoform P01116-2 G12V): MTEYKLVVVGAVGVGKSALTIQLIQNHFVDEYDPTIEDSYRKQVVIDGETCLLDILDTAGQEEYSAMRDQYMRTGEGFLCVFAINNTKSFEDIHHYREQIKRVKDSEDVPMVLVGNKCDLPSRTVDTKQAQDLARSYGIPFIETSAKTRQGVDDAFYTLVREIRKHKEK
T2 sequence (P01116 1-169 isoform P01116-2): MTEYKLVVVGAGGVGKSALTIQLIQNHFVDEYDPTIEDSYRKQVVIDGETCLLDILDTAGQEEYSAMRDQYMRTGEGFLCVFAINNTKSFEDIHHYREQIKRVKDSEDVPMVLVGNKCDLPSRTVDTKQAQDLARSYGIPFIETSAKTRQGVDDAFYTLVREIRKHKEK
T5 sequence (P01116 1-169 isoform P01116-2 G12D): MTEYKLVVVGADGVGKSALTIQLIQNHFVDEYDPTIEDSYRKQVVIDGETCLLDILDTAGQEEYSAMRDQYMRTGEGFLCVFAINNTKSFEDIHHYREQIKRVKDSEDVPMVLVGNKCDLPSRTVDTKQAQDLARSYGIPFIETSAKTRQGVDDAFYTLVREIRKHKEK
T7 sequence (P01116 1-169 isoform P01116-2 G12A): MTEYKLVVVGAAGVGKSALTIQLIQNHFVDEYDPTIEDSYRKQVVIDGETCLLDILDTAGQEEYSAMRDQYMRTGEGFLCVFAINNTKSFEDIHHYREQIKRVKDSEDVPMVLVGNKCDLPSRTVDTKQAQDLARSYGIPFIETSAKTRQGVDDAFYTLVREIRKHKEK
T3 sequence (P01116 1-169 isoform P01116-2 G12S): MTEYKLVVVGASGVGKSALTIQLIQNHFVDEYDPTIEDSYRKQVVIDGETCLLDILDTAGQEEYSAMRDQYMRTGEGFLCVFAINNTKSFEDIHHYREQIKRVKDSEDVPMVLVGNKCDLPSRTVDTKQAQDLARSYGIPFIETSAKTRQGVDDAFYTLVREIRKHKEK
T1 sequence (P01116 1-169 isoform P01116-2 G12R): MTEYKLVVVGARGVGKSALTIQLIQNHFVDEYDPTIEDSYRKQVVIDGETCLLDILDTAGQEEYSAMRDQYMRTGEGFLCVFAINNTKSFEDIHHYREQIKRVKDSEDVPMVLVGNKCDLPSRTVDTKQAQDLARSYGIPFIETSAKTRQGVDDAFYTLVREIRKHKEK
T6 sequence (P01116 1-169 isoform P01116-2 G12C): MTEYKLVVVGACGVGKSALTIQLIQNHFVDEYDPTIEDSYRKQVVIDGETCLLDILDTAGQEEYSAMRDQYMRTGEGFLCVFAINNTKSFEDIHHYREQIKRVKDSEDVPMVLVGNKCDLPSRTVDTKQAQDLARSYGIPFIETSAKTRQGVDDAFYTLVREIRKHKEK

| SMILES | IC50 (KRas^G12R) | IC50 (KRas^WT) | IC50 (KRas^G12S) | IC50 (KRas^G12V) | IC50 (KRas^G12D) | IC50 (KRas^G12C) | IC50 (KRas^G12A) | IC50 (KRas^G13D) | IC50 (KRas^Q61H) | IC50 [2] | IC50 [4] | inhibition at 0.1 µM [1] | inhibition at 0.1 µM [2] | inhibition at 0.1 µM [3] | inhibition at 0.1 µM [4] |
| --- | --- | --- | --- | --- | --- | --- | --- | --- | --- | --- | --- | --- | --- | --- | --- |
| Cc1cc2[nH]nnc2c(-c2ncc3c(N4CCC[C@@](C)(O)C4)nc(OCC45CCCN4CCC5)nc3c2F)c1C [Example 734, (3R)-1-(7-(5,6-dimethyl-1H-benzo[d][1,2,3]triazol-4-yl)-8-fluoro-2-((hexahydro-1H-pyrrolizin-7a-yl)methoxy)pyrido[4,3-d]pyrimidin-4-yl)-3-methylpiperidin-3-ol] | 20600 nM | 10500 nM | 11600 nM | 11600 nM | 8110 nM | 10600 nM | 10300 nM | 10500 nM | 11400 nM |  |  | -13% | -3% | -3% | -18% |
| C[C@@]1(O)CCCN(c2nc(OCC34CCCN3CCC4)nc3c(F)c(-c4ccc(F)c5sc(N)nc45)ncc23)C1 [Example 735, (R)-1-(7-(2-amino-7-fluorobenzo[d]thiazol-4-yl)-8-fluoro-2-((hexahydro-1H-pyrrolizin-7a-yl)methoxy)pyrido[4,3-d]pyrimidin-4-yl)-3-methylpiperidin-3-ol] | 3960 nM | 1840 nM | 2770 nM | 2590 nM | 1980 nM | 3130 nM | 2680 nM | 2140 nM | 3530 nM |  |  | -2% | -31% | 5% | 14% |
| O=C1NC(=O)C2(CCCN(c3nc(OC[C@@]45CCCN4C[C@H](F)C5)nc4c(F)c(-c5c6ccccc6cc6[nH]ncc56)ncc34)C2)N1 (stereo partly drawn) [Example 759, 7-(7-(1H-benzo[f]indazol-4-yl)-8-fluoro-2-(((2R,7aS)-2-fluorohexahydro-1H-pyrrolizin-7a-yl)methoxy)pyrido[4,3-d]pyrimidin-4-yl)-1,3,7-triazaspiro[4.5]decane-2,4-dione] | 6 nM | 8 nM | 7 nM | 4 nM | 8 nM | 7 nM | 8 nM | 7 nM | 5 nM | > 10000 nM | > 10000 nM |  |  |  |  |
| O=C1NCC2(CCCN(c3nc(OC[C@@]45CCCN4C[C@H](F)C5)nc4c(F)c(-c5c6ccccc6cc6[nH]ncc56)ncc34)C2)N1 (stereo partly drawn) [Example 760, 7-(7-(1H-benzo[f]indazol-4-yl)-8-fluoro-2-(((2R,7aS)-2-fluorohexahydro-1H-pyrrolizin-7a-yl)methoxy)pyrido[4,3-d]pyrimidin-4-yl)-1,3,7-triazaspiro[4.5]decan-2-one] | 170 nM | 88 nM | 76 nM | 67 nM | 76 nM | 73 nM | 91 nM | 72 nM | 66 nM | > 10000 nM | > 10000 nM |  |  |  |  |
| Oc1cc(-c2ncc3c(N4C[C@@H]5C[C@H](C4)[C@H](O)C5)nc(OC[C@@]45CCCN4C[C@H](F)C5)nc3c2F)c2ccccc2c1Cl [Example 764, (1R,5R,6R)-3-(7-(4-chloro-3-hydroxynaphthalen-1-yl)-8-fluoro-2-(((2R,7aS)-2-fluorohexahydro-1H-pyrrolizin-7a-yl)methoxy)pyrido[4,3-d]pyrimidin-4-yl)-3-azabicyclo[3.2.1]octan-6-ol] | 3120 nM | 3090 nM | 1690 nM | 1660 nM | 5530 nM | 2390 nM | 2410 nM | 2410 nM | 3930 nM | > 10000 nM | > 10000 nM |  |  |  |  |
| Cc1c(Cl)cc2[nH]ncc2c1-c1ncc2c(N3CCC[C@]4(C3)NC(=O)NC4=O)nc(OCC34CCCN3CCC4)nc2c1F [Example 766, (5R)-7-(7-(6-chloro-5-methyl-1H-indazol-4-yl)-8-fluoro-2-((hexahydro-1H-pyrrolizin-7a-yl)methoxy)pyrido[4,3-d]pyrimidin-4-yl)-1,3,7-triazaspiro[4.5]decane-2,4-dione] | 1880 nM | 980 nM | 824 nM | 988 nM | 2200 nM | 927 nM | 1160 nM | 1210 nM | 954 nM | > 10000 nM | > 10000 nM |  |  |  |  |
| CCc1cccc2cc3[nH]ncc3c(-c3ncc4c(N5CCCC6(CC(=O)N6)C5)nc(OC[C@@]56CCCN5C[C@H](F)C6)nc4c3F)c12 (stereo partly drawn) [Example 771, 6-(7-(5-ethyl-1H-benzo[f]indazol-4-yl)-8-fluoro-2-(((2R,7aS)-2-fluorohexahydro-1H-pyrrolizin-7a-yl)methoxy)pyrido[4,3-d]pyrimidin-4-yl)-1,6-diazaspiro[3.5]nonan-2-one] | 4 nM | 12 nM | 9 nM | 4 nM | 5 nM | 8 nM | 10 nM | 11 nM | 7 nM | 897 nM | 1370 nM |  |  |  |  |

Now from value to molecule, other results behind:

| IC50 (KRas^G12R) | IC50 (KRas^WT) | IC50 (KRas^G12S) | IC50 (KRas^G12V) | IC50 (KRas^G12D) | IC50 (KRas^G12C) | IC50 (KRas^G12A) | IC50 (KRas^G13D) | IC50 (KRas^Q61H) | IC50 [2] | IC50 [4] | SMILES | inhibition at 0.1 µM [1] | inhibition at 0.1 µM [2] | inhibition at 0.1 µM [3] | inhibition at 0.1 µM [4] |
| --- | --- | --- | --- | --- | --- | --- | --- | --- | --- | --- | --- | --- | --- | --- | --- |
| 2 nM | < 2 nM | < 2 nM | < 2 nM | 2 nM | < 2 nM | < 2 nM | < 2 nM | < 2 nM | 9390 nM | > 10000 nM | O=C1NC(=O)[C@]2(CCCN(c3nc(OCC45CCCN4CCC5)nc4c(F)c(-c5c(C6CC6)c(Cl)cc6[nH]ncc56)ncc34)C2)N1 [Example 779, (5R)-7-(7-(6-chloro-5-cyclopropyl-1H-indazol-4-yl)-8-fluoro-2-((hexahydro-1H-pyrrolizin-7a-yl)methoxy)pyrido[4,3-d]pyrimidin-4-yl)-1,3,7-triazaspiro[4.5]decane-2,4-dione] |  |  |  |  |
| 3740 nM | 4220 nM | 2570 nM | 2040 nM | 4650 nM | 2780 nM | 4370 nM | 2550 nM | 4050 nM |  |  | Oc1cc(-c2ncc3c(N4C[C@@H]5C[C@H](C4)[C@H](O)C5)nc(OC[C@@]45CCCN4C[C@H](F)C5)nc3c2F)c2ccccc2c1C(F)(F)F [Example 782, (1R,5R,6R)-3-(8-fluoro-2-(((2R,7aS)-2-fluorohexahydro-1H-pyrrolizin-7a-yl)methoxy)-7-(3-hydroxy-4-(trifluoromethyl)naphthalen-1-yl)pyrido[4,3-d]pyrimidin-4-yl)-3-azabicyclo[3.2.1]octan-6-ol] |  | -11% |  | 5% |
| 5650 nM | 10600 nM | 5660 nM | 3740 nM | 11700 nM | 9220 nM | 8020 nM | 7770 nM | 11000 nM |  |  | Cc1c(O)cc(-c2ncc3c(N4C[C@@H]5C[C@H](C4)[C@H](O)C5)nc(OC[C@@]45CCCN4C[C@H](F)C5)nc3c2F)c2ccccc12 [Example 790, (1R,5R,6R)-3-(8-fluoro-2-(((2R,7aS)-2-fluorohexahydro-1H-pyrrolizin-7a-yl)methoxy)-7-(3-hydroxy-4-methylnaphthalen-1-yl)pyrido[4,3-d]pyrimidin-4-yl)-3-azabicyclo[3.2.1]octan-6-ol] |  | 15% |  | 9% |
| 31 nM | 26 nM | 18 nM | 16 nM | 10 nM | 25 nM | 21 nM | 12 nM | 23 nM | > 10000 nM | > 10000 nM | Cc1cc2[nH]nnc2c(-c2ncc3c(N4CCCC5(CNS(=O)(=O)N5)C4)nc(OCC45CCCN4CCC5)nc3c2F)c1C (centres unmarked) [Example 855, 7-(7-(5,6-dimethyl-1H-benzo[d][1,2,3]triazol-4-yl)-8-fluoro-2-((tetrahydro-1H-pyrrolizin-7a(5H)-yl)methoxy)pyrido[4,3-d]pyrimidin-4-yl)-2-thia-1,3,7-triazaspiro[4.5]decane 2,2-dioxide] |  |  |  |  |
